From patent US20250376498A1, “FUSION PROTEINS COMPRISING AN IMPROVED GLP-1 RECEPTOR AGONIST AND USES THEREOF” (Guangzhou Innogen Pharmaceutical Group Co., Ltd., priority 2022, published 2025)
Like-named read-outs stand apart in the source and are kept apart here.

Tests used:
[1] = cited from earlier work
[2] = cited from earlier work; remark: listed apart in the source
[3] = marketed drugs, refs [22], [24]; cited from earlier work
db/db mice = experiment: Multiple subcutaneous injections in db/db mice (type 2 diabetes model); format: in vivo; settings: db/db mice
Method: The impact of multiple subcutaneous injections of YN-011 on reducing blood glucose levels was evaluated in db/db mice (Jackson Laboratories, 000642). The mice were kept under normal lighting conditions (12 hours light/12 hours dark) and at room temperature, with free access to food (normal rodent chow) and water. Db/db mice lack leptin receptors and spontaneously develop obesity, hyperglycemia, and pancreatic B-cell atrophy by 4 weeks of age.
Sixty affected db/db mice (33-45g) were divided into six groups of 10 mice each (5 males and 5 females) and administered 0 (PBS buffer control), 0.15, 0.3, 0.6, or 1.2 mg/kg of YN-011, or 0.3 mg/kg of Degludec via subcutaneous injection. Another group of wild-type mice (17-22g) with the same genetic background served as the normal control. The administration frequency was once every 3 days (Q3D), with a total of 9 doses administered over a period of 26 days. […] The duration of the hypoglycemic effect ranged from 34 to 72 hours within the dose range of 0.15-1.2 mg/kg.

[4] = Determination of oxidation levels by LC-MS/MS; format: physicochemical
Method: Following the protein oxidation measurement method described in Example 2 or by referring to Bettinger et al., the oxidation levels were determined. It was observed that the GLP-1 fusion protein YN-011 of the present invention was not oxidized at position W31, whereas the oxidation level of […] at the same position exceeded 5%. The oxidation occurred at the location indicated by the rectangular box in the structure of W31.

[5] = semaglutide 1 mg, 30 weeks (Sorli et al.)
[6] = dulaglutide 1.5 mg, 26 weeks (Shi et al.)
[7] = dulaglutide 1.5 mg in combination with metformin, 40 weeks (Dungan et al.)

For CCCCCCCCCCCCCCCC(=O)N[C@@H](CCC(=O)NCCCC[C@H](NC(=O)[C@H](C)NC(=O)[C@H](C)NC(=O)[C@H](CCC(N)=O)NC(=O)CNC(=O)[C@H](CCC(=O)O)NC(=O)[C@H](CC(C)C)NC(=O)[C@H](Cc1ccc(O)cc1)NC(=O)[C@H](CO)NC(=O)[C@H](CO)NC(=O)[C@@H](NC(=O)[C@H](CC(=O)O)NC(=O)[C@H](CO)NC(=O)[C@@H](NC(=O)[C@H](Cc1ccccc1)NC(=O)[C@@H](NC(=O)CNC(=O)[C@H](CCC(=O)O)NC(=O)[C@H](C)NC(=O)[C@@H](N)Cc1cnc[nH]1)[C@@H](C)O)[C@@H](C)O)C(C)C)C(=O)N[C@@H](CCC(=O)O)C(=O)N[C@@H](Cc1ccccc1)C(=O)N[C@H](C(=O)N[C@@H](C)C(=O)N[C@@H](Cc1c[nH]c2ccccc12)C(=O)N[C@@H](CC(C)C)C(=O)N[C@H](C(=O)N[C@@H](CCCNC(=N)N)C(=O)NCC(=O)N[C@@H](CCCNC(=N)N)C(=O)NCC(=O)O)C(C)C)[C@@H](C)CC)C(=O)O [liraglutide], the incidence of nausea ([1]; liraglutide 1 mg, 24 weeks (Shuai et al.)) is given as 5.6% and the incidence of nausea ([1]; liraglutide 3 mg, 24 weeks (Shuai et al.)) is given as 10%.
In the case of Semaglutide, the incidence of nausea ([1]; semaglutide 0.5 mg, 30 weeks (Sorli et al.)) is listed as 20%, the incidence of nausea [1, 5] is listed as 24% and the “reduction in HbA1c levels” value [1, 5] is listed as 1.55%. The incidence of nausea ([2]; semaglutide 1 mg in combination with metformin, 30 weeks (Ji et al.)) was 13.4% and the “half-life / elimination half-life” value [3] was 137 to 161 h.
In the case of “Dulaglutide: DPP-IV protected GLP-1 analog fused with an IgG4/Fc fragment”, the incidence of hypoglycemia ([1]; dulaglutide 0.75 mg, 26 weeks (Shi et al.)) is given as 4.1%, the incidence of hypoglycemia [1, 6] is given as 6.3% and the incidence of nausea [1, 6] is given as 9.5%. The “reduction in HbA1c levels” value [1, 6] was 1.46%, the incidence of hypoglycemia [2, 7] was 9% and the incidence of nausea [2, 7] was 20%. The “reduction in FPG levels” value [2, 7] was 1.93%, the “reduction in HbA1c levels” value [2, 7] was 1.42% and the “half-life / elimination half-life” value [3] was 113 to 132 h.
With Degludec [reference compound] the “average rate of fasting blood glucose reduction” value (db/db mice; 0.3 mg/kg Q3D sc, average over measurement time points) was 63.6%, the “fasting blood glucose levels versus model control group” value (db/db mice; Q3D sc, YN-011 all dose groups (P<0.001), Degludec 0.3 mg/kg) was “significant decrease” and the “oxidation level at position M253” value [4] was “exceeding 5%”. The “oxidation level at position W31” value [4] was “exceeded 5%”.
